Among the data in a melting point compilation (Tetko et al.; mined from patent text by program, amines drawn as free bases though some values may be those of a salt) are melting point values, retold here.

What is called melting point is the temperature, or range, at which the solid turns liquid.

Turning to `COc1ccc(-n2cc(C(F)(F)F)nc2-c2ccc(OC)nc2)cc1`, the melting point lay in the range of 90 to 92 °C.
Under `CC(C)(C)OC(=O)NC(C)(C)c1ccc(Br)nc1` stands 100 to 103 °C; under `CC1(C)Oc2ccc3nc(C(N)=O)ccc3c2C(NCCc2ccccc2)C1O` (centres undefined), 197 to 199 °C.
Under `O=c1[nH]c2ncc(-c3ccc(O)cc3)nc2n1CCc1ccccc1` stands 283 to 284 °C; under `Brc1nnnn1Cc1ccccc1`, 54 °C; under `COC(=O)CCc1cc(NC(=O)c2ccc(C(=O)Nc3cc(CCC(=O)OC)cc(C(C)(C)C)c3O)s2)c(O)c(C(C)(C)C)c1`, 172 to 173 °C.
Under `CN1C(=O)c2c(F)c(F)c(F)c(F)c2C1=O` stands 132 °C.
For `Cc1cccc(C)c1N(CCl)C(=O)c1ccccc1`, the melting point was 133 °C.
Under `COC(=O)C1C(C)=NC(N2CCCCC2)=C(C(=O)OC(C)C)C1c1cccc([N+](=O)[O-])c1` (centres undefined) stands 112 °C; under `CCNC(=O)c1c([Si](C)(C)C)ccc(C(C)=O)c1Cl`, 78 to 80 °C; under `CS(=O)(=O)Oc1ccc(N)c(OCCBr)c1`, 69 to 70 °C.
In turn, `CC(/C=C/[C@H]1C[C@H]1c1ccc2c(c1)C(C)(C)CCC2(C)C)=C\C(=O)O` (racemic) came in with a melting point of 93 to 96 °C.
The molecule `COc1cc(OC)c(NC(=O)[C@H]2[C@H](c3ccccc3)C2(C)C)cc1Cl` (relative stereo) registered a melting point of 160 to 162 °C.
The result for `CCOC(=O)c1csc(Nc2ccc(Br)cn2)n1` reads 300 to 301 °C; that for `CCCOc1ccc(CN2CCC(C(N)=O)CC2)cc1`, 142 to 146 °C; that for `CCCCc1nc2ccn(Cc3ccc(C(=O)O)cc3)c(=O)c2n1Cc1ccc(-c2ccccc2-c2nnn[nH]2)cc1`, more than 300 °C.
The result for `COC(=O)CCC(=O)c1ccc(-c2ccc(Cl)s2)cc1` reads 117 to 118 °C; that for `CCCCOc1ccc2cc(C(C)C(=O)O)ccc2c1` (centres undefined), 125 to 127 °C.
The result for `CC(C)=CCn1c(-c2c(F)cccc2F)nc2c(C)cccc21` reads 78 to 79 °C.
In turn, `Cc1oc(C2CC2)nc1COc1ccc(CC(OC(C)C)C(=O)O)c2ccccc12` (centres undefined) came in with a melting point of 129 to 130 °C.
Consider `CNc1cn(-c2cncnc2)nc1Cl`, for which the melting point was 111 to 114 °C.
In the case of `COc1ccc(Nc2cc([N+](=O)[O-])ccc2C)c(C(=O)O)c1`, the melting point is 219 to 221 °C.
Turning to `N#CCCNC(=O)c1cccc(-c2cccc3nn(Cc4ccc(F)cc4)cc23)c1`, the melting point was 133 to 134 °C.
`N[C@H](CCC(=O)N1[C@H](C(=O)O)C[C@@H]2CCCC[C@@H]21)C(=O)O` yielded a melting point of 191 to 192 °C.
The molecule `CCc1cc(O)n2nc(CC)c(C)c2n1` registered a melting point of 287 °C.
For the molecule `CCc1ccccc1OCC(C)NC(=O)C(C#N)C(C)(C)C` (centres undefined), the melting point is 94 to 97 °C.
Under `O=[N+]([O-])c1cccc(S(=O)(=O)Nc2nncs2)c1` stands 189 to 192 °C.
Under `C=C1OC(=NO)C(c2ccccc2)C(=O)N1C(C)(C)C(=O)Nc1cc(Cl)cc(Cl)c1` (centres undefined) stands 208 to 210 °C; under `COc1ccc(-c2cc(C(F)(F)F)nn2-c2ccc(S(N)(=O)=O)cc2)cc1I`, 220 to 224 °C.
The result for `O=C(O)/C=C/c1cc(C2CC2)nn1Cc1ccc(C(F)(F)F)cc1Cl` reads 191 to 192 °C.
Turning to `Cn1c(-c2cccc(-c3cc4ccccc4n3C)c2)cc2ccccc21`, the melting point came out at 150 °C.
Under `O=C(O)Cc1cn2ccccc2n1` stands 205 to 208 °C; under `CC#CCc1c(C)nc2cc(C)nn2c1N`, 215 to 219 °C; under `N#CCCNC(=O)c1n[nH]cc1NC(=O)c1ccc2c(c1)CCO2`, 206 to 207 °C.
Under `CCCCN(CCCC)CCCOc1ccc(S(=O)(=O)c2cn[nH]c2C(C)C)cc1` stands 53 °C.
Under `COCC1CC2CCC13CN(CC1CC1)CCC31c3cccc(O)c3OC21` (centres undefined) stands 128 to 129 °C; under `CCC1(CBr)Cc2cc(OC)c3c(c2C(c2ccccc2)=N1)CC(CC)(CC)O3` (centres undefined), 108 to 110 °C; under `COc1ccc2c(c1)-c1ccccc1C=CC(O)=C2`, 97 to 99 °C.
Regarding `CCOc1cc(C)ccc1C1CCN(CCCCNC(=O)c2ccc(-c3ccc(C(F)(F)F)cc3)cc2)CC1`, the melting point is 191 °C.
The result for `N#CC(C#N)=C1N(CCCCN2CCCCC2)CCN1CCCCN1CCCCC1` reads 96 to 98 °C; that for `CC(C)(C)C(NC(=O)C(=O)Nc1cccnc1)NC(=O)c1ccc(Cl)cc1` (centres undefined), 168 to 170 °C.
`CC(C)CC(=O)C1CCC2C3CN(C(C)(C)C)C4=CC(=O)CCC4(C)C3CCC12CC(=O)O` (centres undefined): the melting point was in the range of 169 to 171 °C.
Under `Clc1ccc(C2=NNCC2)cc1` stands 90 to 100 °C; under `O=S(=O)(Nc1ccccc1/C=C/c1ccncc1)c1ccc(Cl)cc1`, 218 to 220 °C.
On to `CCSc1ccc(N)c(C(=O)O)c1`, for which the melting point fell in the range of 97 to 100 °C.
Under `O=c1oc2c(c(O)c1C(c1ccccc1)C1CC1)CCCCCC2CC1CCCOC1` (centres undefined) stands 89 to 95 °C; under `COC(=O)c1cc(-c2ccccc2)c(=O)n2c1-c1sccc1S(=O)(=O)C=C2`, 241 to 243 °C; under `CCCCC1CCC(c2ccc(Cc3ccc(N)cc3)cc2)(c2ccc(Cc3ccc(N)cc3)cc2)CC1`, 58.5 to 60.1 °C.
With `OC(CCCN1CC=C(c2ccc(Cl)cc2)CC1)c1ccc(F)cc1` (centres undefined), the melting point is 103 to 105 °C.
Molecule `COc1ccc(C(=O)Nc2ccccc2S(C)(=O)=O)cc1OC1CCCC1` registered a melting point of 119 to 121 °C.
Take `CCC1Nc2cc(F)c(F)cc2-n2cccc21` (centres undefined): the melting point lay in the range of 67 to 69 °C.
Under `Cn1ncnc1COc1nn2c(-c3ccccc3F)nncc2c1-c1cccc(N)c1` stands 196 to 200 °C; under `CCOC(=O)Cc1c(C(F)(F)F)c2ccc(O)cc2oc1=O`, 112 to 114 °C; under `COC(=O)c1ccc2cc(-c3ccc(C(=O)OC)c(C45CC6CC(CC(C6)C4)C5)c3)ccc2c1`, 181 to 182 °C.
Under `O=C1NC(=O)C(Cc2ccc(S(=O)(=O)CCc3ccccc3)cc2)S1` (centres undefined) stands 201 to 203 °C.
Consider `COC(=O)Nc1ccccc1`, for which the melting point was in the range of 45 to 46 °C.
As for `CCC(CC)O[C@@H]1C=C(C(=O)O)C[C@H](CC=O)[C@H]1NC(C)=O`, the melting point fell in the range of 70 to 71 °C.
Under `O=C(NCCCSc1ccncc1)c1cccnc1` stands 90 to 91 °C; under `COc1cc(C(=O)N2CCN(C(=O)C3=Cc4cc(O)c(O)cc4CCC3)CC2)cc(OC)c1OC`, 206 to 207 °C; under `COc1cccc2c1CC(n1cc[nH]c1=S)CC2` (centres undefined), 249 to 251 °C.
The result for `N#Cc1cc([N+](=O)[O-])ccc1OCc1ccc2ccccc2n1` reads 161 to 162 °C; that for `O=c1oc2c(c(O)c1C(c1ccccc1)C1CC1)CCCCC2Cc1ccccc1` (centres undefined), 178 to 182 °C; that for `CS(=O)(=O)OC1CC(n2ccc(=O)[nH]c2=O)OC1COC(c1ccccc1)(c1ccccc1)c1ccccc1` (centres undefined), 106 to 108 °C.
Molecule `Cc1ccc(S(=O)(=O)n2ccc3cc(F)cnc32)cc1` yielded a melting point of 160 °C.
`O=C(NCCc1c2n(c3ccc(O)nc13)CCCc1ccccc1-2)c1ccco1` had a melting point of more than 260 °C.
Molecule `CCOC(=O)C(C)OCc1cc2nc(Cl)ccc2n1S(=O)(=O)c1ccc2nc(N)sc2c1` (centres undefined) came in with a melting point of 86 to 88 °C.
The result for `N#CCc1cccn1Cc1ccccc1` reads 62 to 63 °C.
The result for `CC(C)(C)NCC(O)COc1ccc(-c2nc(C#N)c[nH]2)cc1` (centres undefined) reads 174 to 177 °C.
`CC/C(=C(\c1ccc(I)cc1)c1ccc(OCCCCCBr)cc1)c1ccccc1` had a melting point of 78 to 80 °C.
Turning to `CC(=O)OC1CSC(Oc2cnc(-c3ccncc3)c(Cl)c2)C(OC(C)=O)C1OC(C)=O` (centres undefined), the melting point was 153 °C.
The result for `O=C(O)C1CC(F)(F)CC1C(=O)O` (centres undefined) reads 128 °C.
`CCOc1cc(C(C)(c2cc(OCC)c(O)c(OCC)c2)c2cc(OCC)c(O)c(OCC)c2)cc(OCC)c1O` showed a melting point of 78 °C.
The result for `COc1ccc(OC)c2c(Nc3cccc(N(C)C)c3)c(C#N)cnc12` reads 103 to 105 °C.
Under `CC(C)(C)OC(=O)N[C@H]1CC[C@H](CCN2CCCN(c3cccc(Cl)c3Cl)CC2)CC1` stands 95 to 98 °C; under `CCC(CC)(CC(=O)Nc1cccc(OCc2ccc3ccc(Br)cc3n2)c1)C(=O)O`, 175 °C; under `CN(c1cccc2cc(C3=NCC4(CCC5(CC4)OCCO5)S3)[nH]c12)S(=O)(=O)c1cccs1`, 224 to 225 °C.
Under `Cn1ncc2cc(/C=C/c3ccc(O)cc3)ccc2c1=O` stands 223 to 225 °C; under `CC(C)N1CN(C(=O)c2c(F)cccc2F)C(=O)N(c2ccc(Cl)cc2)C1`, 130 to 131 °C.
For `COc1cccc(COc2cc3c(cc2-c2cc(C=CC(=O)O)ccc2OC)C(C)(C)CCC3(C)C)c1`, the melting point lay within 76 to 78 °C.
